Measurements reported in patent US9687571B2, “Stabilization of radiopharmaceutical compositions using ascorbic acid” (Lantheus Medical Imaging, Inc., priority 2009, dated 2017).

Tests used:
[1] = Effect of ascorbic acid concentration on radiochemical purity (Example 4); assay type: physicochemical; conditions: pH 5.8, FIG. 3
Protocol: The integrity of a radiopharmaceutical is measured by the radiochemical purity (RCP) of the radiolabeled compound using ITLC or more preferably HPLC. The advantage of using HPLC is that radio-impurities caused by radiolytic degradation can be separated from the radiopharmaceutical under certain chromatographic conditions. […] The radiopharmaceutical compositions of this invention are effective in maintaining the stability of samples for up to ten hours.
This example describes the effect of ascorbic acid concentration on radiochemical purity. In this example, the radiochemical purity (RCP) of the ^18F-labeled drug product (2-tert-butyl-4-chloro-5-[4-(2-[^18F]fluoro-ethoxymethyl)-benzyloxy]-2H-pyridazin-3-one) was monitored for solutions having an ascorbic acid concentration range from 200 mg/mL (saturation level) to 20 mg/mL, at pH 5.8.

[2] = Acid/base and solution properties of ascorbic acid; assay type: physicochemical; conditions: aqueous dose solution, pH 5.8

Row | SMILES | radiochemical purity (RCP) level ([1]; ascorbic acid 20 mg/mL) | radiochemical purity (RCP) level ([1]; ascorbic acid 200 to 50 mg/mL) | saturation level (concentration) [2] [mg/mL]
1 | CC(C)(C)n1ncc(OCc2ccc(COCC[18F])cc2)c(Cl)c1=O [2-tert-butyl-4-chloro-5-[4-(2-[^18F]fluoro-ethoxymethyl)-benzyloxy]-2H-pyridazin-3-one] | increase in impurities (i.e., lower RCP level) | do not significantly change | 
2 | O=C1O[C@H]([C@@H](O)CO)C(O)=C1O [Ascorbic acid] |  |  | 200
